Measured values reported in ChEMBL document CHEMBL3875147 (Eur J Med Chem, 2016).
Converted amounts (≈) assume the structure as drawn.

Experiments:
Staphylococcus aureus [1] = test: Potency index, ratio of MIC for ciprofloxacin to MIC for test compound for antibacterial activity against Staphylococcus aureus ATCC 25923; assay type: functional
Staphylococcus aureus [2] = test: Antibacterial activity against Staphylococcus aureus ATCC 25923 incubated for 18 to 24 hrs by micro-dilution method; assay type: functional
[3] = test system: Staphylococcus epidermidis; test: Antibacterial activity against Staphylococcus epidermidis ATCC 35984 incubated for 18 to 24 hrs by micro-dilution method; assay type: functional; details: RP62A
Enterococcus faecalis = test: Antibacterial activity against clinical isolate of Enterococcus faecalis incubated for 18 to 24 hrs by micro-dilution method; assay type: functional
Escherichia coli [4] = test: Antibacterial activity against Escherichia coli ATCC 25922 incubated for 18 to 24 hrs by micro-dilution method; assay type: functional
Pseudomonas aeruginosa [5] = test: Antibacterial activity against Pseudomonas aeruginosa ATCC 27853 incubated for 18 to 24 hrs by micro-dilution method; assay type: functional
Pseudomonas aeruginosa [6] = test: Antibacterial activity against clinical isolate of Pseudomonas aeruginosa incubated for 18 to 24 hrs by micro-dilution method; assay type: functional
[7] = Antibacterial activity against Aeromonas hydrophila ATCC 7966 incubated for 18 to 24 hrs by micro-dilution method; assay type: functional, Aeromonas hydrophila subsp. hydrophila ATCC 7966
Salmonella typhi = test: Antibacterial activity against clinical isolate of Salmonella typhi incubated for 18 to 24 hrs by micro-dilution method; assay type: functional, Salmonella enterica subsp. enterica serovar Typhi; details: Salmonella enterica
Salmonella typhimurium = test: Antibacterial activity against clinical isolate of Salmonella typhimurium incubated for 18 to 24 hrs by micro-dilution method; assay type: functional, Salmonella enterica subsp. enterica serovar Typhimurium; details: Salmonella enterica
[8] = test system: Sphingomonas paucimobilis; test: Antibacterial activity against Sphingomonas paucimobilis MTCC 6362 incubated for 18 to 24 hrs by micro-dilution method; assay type: functional
Plesiomonas shigelloides [9] = test: Antibacterial activity against Plesiomonas shigelloides ATCC 14029 incubated for 18 to 24 hrs by micro-dilution method; assay type: functional
[10] = test system: Staphylococcus epidermidis; test: Potency index, ratio of MIC for ciprofloxacin to MIC for test compound for antibacterial activity against Staphylococcus epidermidis ATCC 35984; assay type: functional, RP62A
Escherichia coli [11] = test: Potency index, ratio of MIC for ciprofloxacin to MIC for test compound for antibacterial activity against Escherichia coli ATCC 25922; assay type: functional
Plesiomonas shigelloides [12] = test: Potency index, ratio of MIC for ciprofloxacin to MIC for test compound for antibacterial activity against Plesiomonas shigelloides ATCC 14029; assay type: functional
[13] = Hemolytic activity in human RBC at 100 uM measured after 1 hr by UV-vis absorbance method relative to control; assay type: ADME, cell-based, Erythrocyte; details: red blood cells (RBC), read-out: Activity

Row | SMILES | Ratio (Staphylococcus aureus [1]) | MIC (Staphylococcus aureus [2]) [µM] | MIC [3] [µM] | MIC (Enterococcus faecalis) [µM] | MIC (Escherichia coli [4]) [µM] | MIC (Pseudomonas aeruginosa [5]) [µM] | MIC (Pseudomonas aeruginosa [6]) [µM] | MIC [7] [µM] | MIC (Salmonella typhi) [µM] | MIC (Salmonella typhimurium) [µM] | MIC [8] [µM] | MIC (Plesiomonas shigelloides [9]) [µM] | Ratio [10] | Ratio (Escherichia coli [11]) | Ratio (Plesiomonas shigelloides [12]) | hemolysis at 1 h, 100 µM [13] [%]
1 | O=C(OCc1cn(-c2cccc(Cl)c2)nn1)c1cn(C2CC2)c2cc(N3CCN(Cc4cn(-c5cccc(Cl)c5)nn4)CC3)c(F)cc2c1=O | 8 - 17 | 1.09 (≈ 0.779 µg/mL) | 1.09 (≈ 0.779 µg/mL) | 8.75 (≈ 6.25 µg/mL) | 1.09 (≈ 0.779 µg/mL) | 17.5 (≈ 12.5 µg/mL) | 35 (≈ 25 µg/mL) | 35 (≈ 25 µg/mL) | 140 (≈ 100 µg/mL) | 17.5 (≈ 12.5 µg/mL) | 17.5 (≈ 12.5 µg/mL) | 1.09 (≈ 0.779 µg/mL) | 8 - 17 | 8 - 17 | 8 - 17 | 24.2
2 | CC(=O)c1ccc(-n2cc(COC(=O)c3cn(C4CC4)c4cc(N5CCN(Cc6cn(-c7ccc(C(C)=O)cc7)nn6)CC5)c(F)cc4c3=O)nn2)cc1 |  | 2.14 (≈ 1.56 µg/mL) | 2.14 (≈ 1.56 µg/mL) | 4.28 (≈ 3.12 µg/mL) | 2.14 (≈ 1.56 µg/mL) | 4.28 (≈ 3.12 µg/mL) | 8.56 (≈ 6.25 µg/mL) | 8.56 (≈ 6.25 µg/mL) |  | 8.56 (≈ 6.25 µg/mL) | 17.1 (≈ 12.5 µg/mL) | 2.14 (≈ 1.56 µg/mL) |  |  |  | 8.05
3 | O=C(OCc1cn(-c2ccc(F)c(Cl)c2)nn1)c1cn(C2CC2)c2cc(N3CCN(Cc4cn(-c5ccc(F)c(Cl)c5)nn4)CC3)c(F)cc2c1=O |  | 8.33 (≈ 6.25 µg/mL) | 8.33 (≈ 6.25 µg/mL) | 16.6 (≈ 12.5 µg/mL) | 8.33 (≈ 6.25 µg/mL) | 16.6 (≈ 12.5 µg/mL) | 16.6 (≈ 12.5 µg/mL) | 33.3 (≈ 25 µg/mL) |  | 16.6 (≈ 12.5 µg/mL) | 16.6 (≈ 12.5 µg/mL) | 4.16 (≈ 3.12 µg/mL) |  |  |  | 5.36
4 | O=C(OCc1cn(-c2ccc([N+](=O)[O-])cc2)nn1)c1cn(C2CC2)c2cc(N3CCN(Cc4cn(-c5ccc([N+](=O)[O-])cc5)nn4)CC3)c(F)cc2c1=O |  | 4.25 (≈ 3.13 µg/mL) | 1.06 (≈ 0.78 µg/mL) | 8.5 (≈ 6.25 µg/mL) | 4.25 (≈ 3.13 µg/mL) | 8.5 (≈ 6.25 µg/mL) | 17 (≈ 12.5 µg/mL) | 17 (≈ 12.5 µg/mL) |  | 17 (≈ 12.5 µg/mL) | 17 (≈ 12.5 µg/mL) | 4.25 (≈ 3.13 µg/mL) |  |  |  | 5.61
5 | COc1ccccc1-n1cc(COC(=O)c2cn(C3CC3)c3cc(N4CCN(Cc5cn(-c6ccccc6OC)nn5)CC4)c(F)cc3c2=O)nn1 |  | 35.4 (≈ 25 µg/mL) | 35.4 (≈ 25 µg/mL) | 35.4 (≈ 25 µg/mL) | 8.86 (≈ 6.25 µg/mL) | 17.7 (≈ 12.5 µg/mL) | 35.4 (≈ 25 µg/mL) | 70.8 (≈ 50 µg/mL) | 35.4 (≈ 25 µg/mL) | 4.43 (≈ 3.13 µg/mL) | 4.43 (≈ 3.13 µg/mL) | 4.43 (≈ 3.13 µg/mL) |  |  |  | 7.65
6 | CCCCCc1ccc(-n2cc(COC(=O)c3cn(C4CC4)c4cc(N5CCN(Cc6cn(-c7ccc(CCCCC)cc7)nn6)CC5)c(F)cc4c3=O)nn2)cc1 |  | 63.6 (≈ 50 µg/mL) | 127 (≈ 100 µg/mL) | > 127 | > 127 | > 127 | 31.8 (≈ 25 µg/mL) | > 127 | > 127 | > 127 | > 127 | 63.6 (≈ 50 µg/mL) |  |  |  | 5.32
7 | O=C(OCc1cn(-c2ccccc2Cl)nn1)c1cn(C2CC2)c2cc(N3CCN(Cc4cn(-c5ccccc5Cl)nn4)CC3)c(F)cc2c1=O |  | 8.75 (≈ 6.25 µg/mL) | 1.09 (≈ 0.779 µg/mL) | 35 (≈ 25 µg/mL) | 2.19 (≈ 1.56 µg/mL) | 8.75 (≈ 6.25 µg/mL) | 35 (≈ 25 µg/mL) | 35 (≈ 25 µg/mL) | 140 (≈ 100 µg/mL) | 17.5 (≈ 12.5 µg/mL) | 35 (≈ 25 µg/mL) | 2.19 (≈ 1.56 µg/mL) |  |  |  | 5.85
8 | O=C(OCc1cn(-c2ccccc2)nn1)c1cn(C2CC2)c2cc(N3CCN(Cc4cn(-c5ccccc5)nn4)CC3)c(F)cc2c1=O |  | 38.7 (≈ 25 µg/mL) | 38.7 (≈ 25 µg/mL) | > 155 | > 155 | > 155 | > 155 | > 155 | > 155 | > 155 | > 155 | 9.68 (≈ 6.25 µg/mL) |  |  |  | 4.65
9 | O=C(OCc1cn(-c2ccc(F)cc2Cl)nn1)c1cn(C2CC2)c2cc(N3CCN(Cc4cn(-c5ccc(F)cc5Cl)nn4)CC3)c(F)cc2c1=O |  | 2.08 (≈ 1.56 µg/mL) | 4.16 (≈ 3.12 µg/mL) | 16.6 (≈ 12.5 µg/mL) | 16.6 (≈ 12.5 µg/mL) | 16.6 (≈ 12.5 µg/mL) | 16.6 (≈ 12.5 µg/mL) | 66.6 (≈ 50 µg/mL) |  | 33.3 (≈ 25 µg/mL) | 33.3 (≈ 25 µg/mL) | 33.3 (≈ 25 µg/mL) |  |  |  | 29.8
10 | O=C(O)c1cn(C2CC2)c2cc(N3CCNCC3)c(F)cc2c1=O [CIPROFLOXACIN] |  |  | 9.43 (≈ 3.12 µg/mL) |  |  |  |  |  |  |  |  | 9.43 (≈ 3.12 µg/mL) |  |  |  | 5.23
